According to US11939334B2, “Substituted pyrimido[4,5-b][1,4]diazepines as PLK1 degradation inducers” (UPPTHERA, INC., priority 2021, dated 2024):

Key:
PLK1 = biological target: T1, PLK1 (Homo sapiens, UniProt P53350); assay: Luciferase assay for PLK1 in HeLa LgBit (Plk1-HiBit KI) cell line; assay type: cell-based; details: 300 nM compound, luminescence after 9 hours
T1 construct: endogenous in cells; host or cells: HeLa cells stably expressing LgBit, with CRISPR/Cas9 knock-in of HiBit at the endogenous PLK1 locus
T1 sequence (P53350 whole entry): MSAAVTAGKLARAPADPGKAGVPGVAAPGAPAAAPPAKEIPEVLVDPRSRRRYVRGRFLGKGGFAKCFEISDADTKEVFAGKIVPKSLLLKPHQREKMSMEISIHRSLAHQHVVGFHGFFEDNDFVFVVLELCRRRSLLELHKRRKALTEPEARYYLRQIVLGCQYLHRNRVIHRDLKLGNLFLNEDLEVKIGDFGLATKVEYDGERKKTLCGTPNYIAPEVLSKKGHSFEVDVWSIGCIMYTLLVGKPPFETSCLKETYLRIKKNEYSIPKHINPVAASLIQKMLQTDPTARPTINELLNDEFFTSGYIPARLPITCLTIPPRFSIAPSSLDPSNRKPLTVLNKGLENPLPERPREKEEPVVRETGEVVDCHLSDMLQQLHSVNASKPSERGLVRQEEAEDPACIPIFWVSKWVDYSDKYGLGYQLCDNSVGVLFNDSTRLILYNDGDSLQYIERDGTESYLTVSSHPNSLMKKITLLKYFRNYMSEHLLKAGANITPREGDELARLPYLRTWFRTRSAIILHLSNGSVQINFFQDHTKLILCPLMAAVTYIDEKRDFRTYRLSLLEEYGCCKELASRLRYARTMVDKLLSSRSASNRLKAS
Method: 2. Luciferase Assay for PLK1
(1) Preparation and Culture of HeLa LgBit (Plk1-HiBit KI) Cell Line
A HeLa cell line in which the LgBit vector was transfected and expressed stably was prepared. Then, after constructing gRNA and donor to express the HiBit amino acid sequence behind the C-terminal of the Plk1 gene, which was inherent in the cell, it was inserted into the cell together with a vector capable of expressing CRISPR/Cas9. Only the cells in which the insertion was completed and knock-in had progressed were selected, sub-cultured and used.
(2) Treatment of Compounds of the Present Invention and Method of Luciferase Assay
In the case of HeLa LgBit (Plk1-HiBit KI), the compounds were treated after being released after thymidine block, and the process was as follows. Thymidine (Sigma-Aldrich Cat. No. T9250-5G) was completely dissolved in DW and used in the experiment. For thymidine block, the products were treated with 2 mM of thymidine and then incubated for 24 hours. For release and chemical treatment, the medium was suctioned and washed with 1×PBS. TrypLE™ was added and incubated in 37° C. CO2 incubator for 5 min. Cells neutralized by adding complete media were counted through a counter. For each well of a 96-well culture plate (SPL), 3.3×10^4 cells and a total medium volume of 150 μL were seeded and incubated in a CO2 incubator.
Each cell line was incubated in a CO2 incubator for 18 hours, and Endurazine was added to each well to make up 4% of the total volume. After adding the compound of the present invention in a 96-well white plate (SPL) to a concentration of 300 nM, the wavelength of the plate reader (BMG Labtech, CLARIOstar Plus) was set to […], and then the luminescence was tracked in real time.
The results are shown in Table 2 below and FIGS. 1 and 2.
In Table 2, Activity represents the ratio of the luminescence value of each Exemplary Compound treatment group to DMSO treatment group (+++: <0.3, ++ <0.6, + <0.7).

H526 cell line = assay: Cell viability assay for H526 cell line; assay type: cell-based; details: Homo sapiens, NCI-H526, 120 h; H526 cells, 5 days, EZ-Cytox, 0.46-3000 nM
Method: 3. Cell Viability Assay for H526 Cell Line
(1) Culture of NCI-H526 Cell Line
(2) Treatment of Compounds of the Present Invention and Method of Cell Viability Assay
After treating the compound to each well to make the total volume of 200 μL, it was cultured in a CO2 incubator (Thermo Fisher Science, Cat. No. 4111) for 5 days.
The absorbance of the completely cultured sample was measured by setting the wavelength of a plate reader (BMG Labtech, CLARIOstar Plus) to […], and was measured after shaking for 3 minutes in a plate reader before measurement.
In Table 3, Activity represents IC50 value of each Exemplary Compound treatment group to H526 cell line (A: <30 nM, B: <50 nM, C: <100 nM, D: <200 nM, E: <400 nM).

| Compound | Activity: ratio of the luminescence value of each Exemplary Compound treatment group to DMSO treatment group (PLK1) | IC50 (H526 cell line) |
| --- | --- | --- |
| COc1cc(C(=O)NC2CC3(CCN(CCC4CCN(c5ccc(C6CCC(=O)NC6=O)cc5F)CC4)CC3)C2)ccc1Nc1ncc2c(n1)N(C(C)C)CC(F)(F)C(=O)N2C (stereo not drawn) [Compound 29, 4-((7,7-difluoro-9-isopropyl-5-methyl-6-oxo-6,7,8,9-tetrahydro-5H-pyrimido[4,5-b][1,4]diazepin-2-yl)amino)-N-(7-(2-(1-(4-(2,6-dioxopiperidin-3-yl)-2-fluorophenyl)piperidin-4-yl)ethyl)-7-azaspiro[3.5]nonan-2-yl)-3-methoxybenzamide] | ++ (++ <0.6) | < 0.03 µM |
| COc1cc(C(=O)NC2CCC(N(C)CC3CCN(c4ccc(C5CCC(=O)NC5=O)cc4F)CC3)CC2)ccc1Nc1ncc2c(n1)N(C(C)C)CC(F)(F)C(=O)N2C (stereo not drawn) [Compound 8, 4-((7,7-difluoro-9-isopropyl-5-methyl-6-oxo-6,7,8,9-tetrahydro-5H-pyrimido[4,5-b][1,4]diazepin-2-yl)amino)-N-((1s,4s)-4-(((1-(4-(2,6-dioxopiperidin-3-yl)-2-fluorophenyl)piperidin-4-yl)methyl)(methyl)amino)cyclohexyl)-3-methoxybenzamide] | ++ (++ <0.6) |  |
| COc1cc(C(=O)NC2CC3(CCN(CC4CCN(c5ccc(C6CCC(=O)NC6=O)cc5F)CC4)CC3)C2)ccc1Nc1ncc2c(n1)N1CCC[C@@H]1CC(=O)N2C (stereo partly drawn) [Compound 24, N-(7-((1-(4-(2,6-dioxopiperidin-3-yl)-2-fluorophenyl)piperidin-4-yl)methyl)-7-azaspiro[3.5]nonan-2-yl)-3-methoxy-4-(((R)-5-methyl-6-oxo-6,7,7a,8,9,10-hexahydro-5H-pyrimido[5,4-b]pyrrolo[1,2-d][1,4]diazepin-2-yl)amino)benzamide] | ++ (++ <0.6) | < 0.1 µM |
| COc1cc(C(=O)NCC2CC3(CCN(CC4CCN(c5ccc(C6CCC(=O)NC6=O)cc5F)CC4)CC3)C2)ccc1Nc1ncc2c(n1)N(C(C)C)CC(F)(F)C(=O)N2C (stereo not drawn) [Compound 30, 4-((7,7-difluoro-9-isopropyl-5-methyl-6-oxo-6,7,8,9-tetrahydro-5H-pyrimido[4,5-b][1,4]diazepin-2-yl)amino)-N-((7-((1-(4-(2,6-dioxopiperidin-3-yl)-2-fluorophenyl)piperidin-4-yl)methyl)-7-azaspiro[3.5]nonan-2-yl)methyl)-3-methoxybenzamide] | +++ (+++: <0.3) | < 0.1 µM |
| COc1cc(C(=O)NC2CC3(CCN(CC4CCN(c5ccc(C6CCC(=O)NC6=O)cc5F)C(=O)C4)CC3)C2)ccc1Nc1ncc2c(n1)N(C(C)C)CC(F)(F)C(=O)N2C (stereo not drawn) [Compound 28, 4-((7,7-difluoro-9-isopropyl-5-methyl-6-oxo-6,7,8,9-tetrahydro-5H-pyrimido[4,5-b][1,4]diazepin-2-yl)amino)-N-(7-((1-(4-(2,6-dioxopiperidin-3-yl)-2-fluorophenyl)-2-oxopiperidin-4-yl)methyl)-7-azaspiro[3.5]nonan-2-yl)-3-methoxybenzamide] | ++ (++ <0.6) | < 0.03 µM |
| COc1cc(C(=O)NC2CC3(CCN(CCC4(C)CCN(c5ccc(C6CCC(=O)NC6=O)cc5F)C4)CC3)C2)ccc1Nc1ncc2c(n1)N(C(C)C)CC(F)(F)C(=O)N2C (stereo not drawn) [Compound 26, 4-((7,7-difluoro-9-isopropyl-5-methyl-6-oxo-6,7,8,9-tetrahydro-5H-pyrimido[4,5-b][1,4]diazepin-2-yl)amino)-N-(7-(2-(1-(4-(2,6-dioxopiperidin-3-yl)-2-fluorophenyl)-3-methylpyrrolidin-3-yl)ethyl)-7-azaspiro[3.5]nonan-2-yl)-3-methoxybenzamide] | ++ (++ <0.6) | < 0.03 µM |

Further lines, with some results ahead:

| Activity: ratio of the luminescence value of each Exemplary Compound treatment group to DMSO treatment group (PLK1) | Compound | IC50 (H526 cell line) |
| --- | --- | --- |
| ++ (++ <0.6) | COc1cc(C(=O)NC2CCN(C3CCN(c4ccc(C5CCC(=O)NC5=O)cc4F)C3)CC2)ccc1Nc1ncc2c(n1)N(C(C)C)CC(F)(F)C(=O)N2C (stereo not drawn) [Compound 59, 4-((7,7-difluoro-9-isopropyl-5-methyl-6-oxo-6,7,8,9-tetrahydro-5H-pyrimido[4,5-b][1,4]diazepin-2-yl)amino)-N-(1-(1-(4-(2,6-dioxopiperidin-3-yl)-2-fluorophenyl)pyrrolidin-3-yl)piperidin-4-yl)-3-methoxybenzamide] |  |
| ++ (++ <0.6) | COc1cc(C(=O)NC2CC3(CCN(CC4CCN(Cc5ccc(C6CCC(=O)NC6=O)cc5F)CC4)CC3)C2)ccc1Nc1ncc2c(n1)N(C(C)C)CC(F)(F)C(=O)N2C (stereo not drawn) [Compound 34, 4-((7,7-difluoro-9-isopropyl-5-methyl-6-oxo-6,7,8,9-tetrahydro-5H-pyrimido[4,5-b][1,4]diazepin-2-yl)amino)-N-(7-((1-(4-(2,6-dioxopiperidin-3-yl)-2-fluorobenzyl)piperidin-4-yl)methyl)-7-azaspiro[3.5]nonan-2-yl)-3-methoxybenzamide] |  |
| ++ (++ <0.6) | COc1cc(C(=O)NN2CCC(N3CC4(CCN(c5ccc(C6CCC(=O)NC6=O)cc5F)CC4)C3)CC2)ccc1Nc1ncc2c(n1)N(C(C)C)CC(F)(F)C(=O)N2C (stereo not drawn) [Compound 40, 4-((7,7-difluoro-9-isopropyl-5-methyl-6-oxo-6,7,8,9-tetrahydro-5H-pyrimido[4,5-b][1,4]diazepin-2-yl)amino)-N-(4-(7-(4-(2,6-dioxopiperidin-3-yl)-2-fluorophenyl)-2,7-diazaspiro[3.5]nonan-2-yl)piperidin-1-yl)-3-methoxybenzamide] | < 0.03 µM |
| ++ (++ <0.6) | COc1cc(C(=O)NC2CCC(CCN3CCN(c4ccc(C5CCC(=O)NC5=O)cc4F)CC3)CC2)ccc1Nc1ncc2c(n1)N(C(C)C)CC(F)(F)C(=O)N2C (stereo not drawn) [Compound 41, 4-((7,7-difluoro-9-isopropyl-5-methyl-6-oxo-6,7,8,9-tetrahydro-5H-pyrimido[4,5-b][1,4]diazepin-2-yl)amino)-N-((1s,4s)-4-(2-(4-(4-(2,6-dioxopiperidin-3-yl)-2-fluorophenyl)piperazin-1-yl)ethyl)cyclohexyl)-3-methoxybenzamide] |  |
| + (+ <0.7) | COc1cc(C(=O)NN2CCC(CN3CCN(C(=O)c4ccc(OC)c(N5CCC(=O)NC5=O)c4)CC3)CC2)ccc1Nc1ncc2c(n1)N(C(C)C)CC(F)(F)C(=O)N2C [Compound 51, 4-((7,7-difluoro-9-isopropyl-5-methyl-6-oxo-6,7,8,9-tetrahydro-5H-pyrimido[4,5-b][1,4]diazepin-2-yl)amino)-N-(4-((4-(3-(2,4-dioxotetrahydropyrimidin-1(2H)-yl)-4-methoxybenzoyl)piperazin-1-yl)methyl)piperidin-1-yl)-3-methoxybenzamide] |  |
| ++ (++ <0.6) | COc1cc(C(=O)NC2CC3(CCN(CC4CCN(c5ccc(C6CCC(=O)NC6=O)c(OC)c5)CC4)CC3)C2)ccc1Nc1ncc2c(n1)N(C(C)C)CC(F)(F)C(=O)N2C (stereo not drawn) [Compound 37, 4-((7,7-difluoro-9-isopropyl-5-methyl-6-oxo-6,7,8,9-tetrahydro-5H-pyrimido[4,5-b][1,4]diazepin-2-yl)amino)-N-(7-((1-(4-(2,6-dioxopiperidin-3-yl)-3-methoxyphenyl)piperidin-4-yl)methyl)-7-azaspiro[3.5]nonan-2-yl)-3-methoxybenzamide] |  |
